Experimental data published in paper PMC10447463, “Data-mining unveils structure–property–activity correlation of viral infectivity enhancing self-assembling peptides” (Nature Communications, 2023).
Read-outs that look alike come from different tables or passages of the source.

How the values were obtained:
[1] = Turbidity, derived count rate of scattered light; type: physicochemical; conditions: for Zeta Count Rate / kcps: mean; for Log Count Rate: log of derived count rate; for Count Rate: turbidity
Summary of the method: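 Samples: 1 mg/mL in PBS pH 7.4 (from DMSO), 1 d at RT, then diluted in 1 mM KCl immediately before measurement. Triplicates, two independent runs averaged.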

[2] = type: physicochemical; conditions: for Tht category (> 1.5 to blank = +): category 1/0
Summary of the method: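 Preformed peptide fibrils (1 mg/mL) mixed with 50 µM ThT in PBS, 15 min at RT, fluorescence ex 440/em 488 nm versus PBS blank, triplicates. Zeta potential: peptides at 1 mg/mL in PBS pH 7.4, aged 1 d at RT, diluted in 1 mM KCl, Smoluchowski from electrophoretic mobility.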

[3] = derived count rate of scattered light, std deviation in next column
[4] = ThT fluorescence relative to blank (42.1851851851852 a.u.)
[5] = relative to blank 42.1851851851852 a.u.
[6] = derived count rate from zeta measurement
[7] = Fig S8 panels A, C, asymmetric log errors
[8] = Fig S8 panels B, D, derived count rate of scattered light
[9] = category 1 or 0 from count rate, key not given
[10] = derived count rate of scattered light, std deviation in separate column

Substance: CEFEFQFNMWQ [TM140]
- Zeta Count Rate Category ([1]; category 1/0, no key printed): 1
- Zeta Count Rate Category ([1]; category 1 or 0 derived from the count rate, key not given): 1
- Zeta Count Rate / kcps [1, 3]: 186.3 kcps
- Tht rel to blank (42.1851851851852) [2, 4]: 6.057
- Tht category (> 1.5 to blank = +) [2]: 1 (ThT. Cat is 1, if Rel. ThT >2)
- Tht rel to blank (42.1851851851852) [2, 5]: 6.057

Substance: CEIEIQI [AR2/ TM142]
- Zeta Count Rate Category ([1]; category 1/0, no key printed): 0
- Zeta Count Rate / kcps [1, 6]: 51.97 kcps
- Zeta Count Rate / kcps [1, 3]: 51.97 kcps
- Zeta Count Rate Category ([1]; key not given): 0
- Tht rel to blank (42.1851851851852) [2, 4]: 2.23
- Tht category (> 1.5 to blank = +) [2]: 1 (ThT. Cat is 1, if Rel. ThT >2)
- Tht rel to blank (42.1851851851852) [2, 5]: 2.23

Substance: CEIEIQINM [TM144]
- Zeta Count Rate Category ([1]; category 1/0, no key printed): 0
- Zeta Count Rate / kcps [1, 6]: 58.43 kcps
- Zeta Count Rate / kcps [1, 3]: 58.43 kcps
- Zeta Count Rate Category ([1]; key not given): 0
- Tht rel to blank (42.1851851851852) [2, 4]: 5.13
- Tht category (> 1.5 to blank = +) [2]: 1 (ThT. Cat is 1, if Rel. ThT >2)
- Tht rel to blank (42.1851851851852) [2, 5]: 5.13

Substance: CEIEIQINMWQ [TM143]
- Zeta Count Rate Category ([1]; category 1/0, no key printed): 1
- Zeta Count Rate / kcps [1, 6]: 1570 kcps
- Zeta Count Rate / kcps [1, 3]: 1570 kcps
- Zeta Count Rate Category ([1]; key not given): 1
- Tht rel to blank (42.1851851851852) [2, 4]: 3.705
- Tht category (> 1.5 to blank = +) [2]: 1 (ThT. Cat is 1, if Rel. ThT >2)
- Tht rel to blank (42.1851851851852) [2, 5]: 3.705

Substance: CHLHLQL [CN9]
- Log Count Rate [1, 7]: 3.062
- Log Count Rate ([1]; Fig S8 panels B, D): 3.062
- Count Rate [1, 8]: 1154.63
- Zeta Count Rate Category ([1]; category 1/0, no key printed): 1
- Zeta Count Rate / kcps [1, 3]: 1155 kcps
- Tht category (> 1.5 to blank = +) [2]: 1 (ThT. Cat is 1, if Rel. ThT >2)
- Tht rel to blank (42.1851851851852) [2, 5]: 3.241

Substance: CKAKAQA [TM155]
- Zeta Count Rate Category ([1]; category 1/0, no key printed): 1
- Zeta Count Rate Category [1, 9]: 1
- Zeta Count Rate / kcps [1, 3]: 362.7 kcps
- Zeta Count Rate / kcps [1, 10]: 362.7 kcps
- Tht rel to blank (42.1851851851852) [2, 4]: 1.227
- Tht category (> 1.5 to blank = +) [2]: 0 (ThT-inactive (N-Fold <2))
- Tht rel to blank (42.1851851851852) [2, 5]: 1.227

Substance: CKAKAQANM [BL9]
- Zeta Count Rate Category ([1]; category 1/0, no key printed): 1
- Zeta Count Rate Category [1, 9]: 1
- Zeta Count Rate / kcps [1, 3]: 207.3 kcps
- Zeta Count Rate / kcps [1, 10]: 207.3 kcps
- Tht rel to blank (42.1851851851852) [2, 4]: 1.249
- Tht category (> 1.5 to blank = +) [2]: 0 (ThT-inactive (N-Fold <2))
- Tht rel to blank (42.1851851851852) [2, 5]: 1.249

Substance: CKAKAQANMWQ [BL8]
- Log Count Rate [1, 7]: 0.9528
- Log Count Rate ([1]; Fig S8 panels B, D): 0.9528
- Count Rate [1, 8]: 8.97
- Zeta Count Rate Category ([1]; category 1/0, no key printed): 0
- Zeta Count Rate Category [1, 9]: 0
- Zeta Count Rate / kcps [1, 3]: 8.967 kcps
- Zeta Count Rate / kcps [1, 10]: 8.967 kcps
- Tht rel to blank (42.1851851851852) [2, 4]: 1.86
- Tht category (> 1.5 to blank = +) [2]: 0 (ThT-inactive (N-Fold <2))
- Tht rel to blank (42.1851851851852) [2, 5]: 1.86

Substance: CKFKFQF [BL4]
- Log Count Rate [1, 7]: 3.725
- Log Count Rate ([1]; Fig S8 panels B, D): 3.725
- Count Rate [1, 8]: 5303.37
- Zeta Count Rate Category ([1]; category 1/0, no key printed): 1
- Zeta Count Rate Category [1, 9]: 1
- Zeta Count Rate / kcps [1, 3]: 5303 kcps
- Zeta Count Rate / kcps [1, 10]: 5303 kcps
- Tht rel to blank (42.1851851851852) [2, 4]: 2.251
- Tht category (> 1.5 to blank = +) [2]: 1 (ThT. Cat is 1, if Rel. ThT >2)
- Tht rel to blank (42.1851851851852) [2, 5]: 2.251
